The target of the assay is PepA-Nter (N-terminal ANP-like domain of PepA, PP_2561) (Pseudomonas putida, UniProt Q88JT6). Kind of assay: peroxidase assay, quinoneimine formation at […] nm. Format: biochemical. To be noted: heme-reconstituted; electron donor with phenol; H2O2 0.25-45 mM varied; potassium phosphate pH 7.0, 25 °C.

The record followed here is PMC3396595, “Identification of a Novel Calcium Binding Motif Based on the Detection of Sequence Insertions in the Animal Peroxidase Domain of Bacterial Proteins” (PLoS ONE, 2012).

Each structure is given as a SMILES string.

Chain of PepA-Nter (N-terminal ANP-like domain of PepA, PP_2561) (Q88JT6 1-875 limits assumed): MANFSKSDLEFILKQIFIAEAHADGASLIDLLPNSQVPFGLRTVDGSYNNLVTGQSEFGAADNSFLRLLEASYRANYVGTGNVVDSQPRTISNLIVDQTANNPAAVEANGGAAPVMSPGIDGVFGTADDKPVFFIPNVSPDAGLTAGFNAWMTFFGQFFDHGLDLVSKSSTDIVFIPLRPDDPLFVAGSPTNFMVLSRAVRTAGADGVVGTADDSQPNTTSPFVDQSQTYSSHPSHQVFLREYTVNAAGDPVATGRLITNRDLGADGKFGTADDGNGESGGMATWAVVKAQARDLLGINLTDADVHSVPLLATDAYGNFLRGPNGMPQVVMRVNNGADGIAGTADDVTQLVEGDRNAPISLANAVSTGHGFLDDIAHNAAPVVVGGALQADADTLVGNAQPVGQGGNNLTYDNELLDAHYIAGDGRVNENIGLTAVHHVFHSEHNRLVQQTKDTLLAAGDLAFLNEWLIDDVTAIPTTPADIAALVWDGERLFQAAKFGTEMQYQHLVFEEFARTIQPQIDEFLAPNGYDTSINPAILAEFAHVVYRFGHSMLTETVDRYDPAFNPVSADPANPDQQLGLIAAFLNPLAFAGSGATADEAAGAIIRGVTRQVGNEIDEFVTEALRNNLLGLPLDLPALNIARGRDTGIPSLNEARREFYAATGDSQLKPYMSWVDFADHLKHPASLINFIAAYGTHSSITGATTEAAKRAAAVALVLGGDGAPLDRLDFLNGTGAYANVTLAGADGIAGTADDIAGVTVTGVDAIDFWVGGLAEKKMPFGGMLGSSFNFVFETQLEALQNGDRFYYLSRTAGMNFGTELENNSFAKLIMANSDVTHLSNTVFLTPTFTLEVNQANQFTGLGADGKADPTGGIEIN

`Cc1c(N)c(=O)n(-c2ccccc2)n1C` [4-aminoantipyrine]: the “peroxidase assay, quinoneimine formation at 510 nm” value is reported as “oxidation of 4-aminoantipyrine (same electron donor than the one used in this study)”.
